Source: patent publication US20090215778A1, “Alpha-substituted Arylmethyl Piperazine Pyrazolo [1,5-alpha]Pyrimidine Amide Derivatives” (priority 2007, published 2009)

Columns and labels:
HIV-1, NL4-3 strain = assay: Virus infection assay (virus entry and single-cycle infection); type: cell-based; conditions: Human immunodeficiency virus 1, NL43, TZM-b1, read-out: Nl4
In short: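 TZM-b1 cells (CD4, CXCR4, CCR5; LTR-driven lacZ/luciferase reporters) were infected with HIV-1 NL4-3 (MOI 0.01) with 80 μg/mL DEAE-dextran in the presence of test compound, 4 h at 37 °C before adding complete medium. Infection was quantified one day post-infection as chemiluminescent β-galactosidase signal.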

[1] = target: T1, HIV Env six-helix bundle (6HB) structure (Human immunodeficiency virus type 1 group M subtype B, UniProt P04579); assay: Six-helix bundle (6HB) assay; type: cell-based, HIV-1 (strain RF)
T1 construct: H9 cells chronically infected with HIV-1 (H9/HIV-1RF); endogenous in cells; host or cells: H9 cells chronically infected with HIV-1 strain RF (Env is made from the virus in the infected cells, not by transfection)
In short: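 Chronically HIV-1 RF-infected H9 cells (12-40 days post-infection), 2.5×10^5 per well, were preincubated with compound for 30 min at 37 °C. sCD4 at 1 μg/mL was added for 1 h to trigger Env changes. 6HB-specific rabbit serum (1 h, 37 °C) was then added, followed by PE anti-rabbit (45 min, 4 °C), with flow cytometric fluorescence read-out.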

T1 sequence (P04579 32-519): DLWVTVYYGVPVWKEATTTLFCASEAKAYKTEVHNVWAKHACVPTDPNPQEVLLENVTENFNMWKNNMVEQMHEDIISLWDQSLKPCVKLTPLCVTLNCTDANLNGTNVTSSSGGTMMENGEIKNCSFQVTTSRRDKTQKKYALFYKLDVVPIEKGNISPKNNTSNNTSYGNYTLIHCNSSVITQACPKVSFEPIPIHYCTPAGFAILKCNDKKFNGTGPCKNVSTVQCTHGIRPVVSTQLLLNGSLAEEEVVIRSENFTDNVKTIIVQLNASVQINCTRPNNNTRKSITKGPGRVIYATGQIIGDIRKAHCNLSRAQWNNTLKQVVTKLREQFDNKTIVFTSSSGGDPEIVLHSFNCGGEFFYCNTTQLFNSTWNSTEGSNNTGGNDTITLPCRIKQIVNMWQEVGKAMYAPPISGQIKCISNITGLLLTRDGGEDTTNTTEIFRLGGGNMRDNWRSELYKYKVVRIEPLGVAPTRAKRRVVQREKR
T1 sequence (P04579 520-865): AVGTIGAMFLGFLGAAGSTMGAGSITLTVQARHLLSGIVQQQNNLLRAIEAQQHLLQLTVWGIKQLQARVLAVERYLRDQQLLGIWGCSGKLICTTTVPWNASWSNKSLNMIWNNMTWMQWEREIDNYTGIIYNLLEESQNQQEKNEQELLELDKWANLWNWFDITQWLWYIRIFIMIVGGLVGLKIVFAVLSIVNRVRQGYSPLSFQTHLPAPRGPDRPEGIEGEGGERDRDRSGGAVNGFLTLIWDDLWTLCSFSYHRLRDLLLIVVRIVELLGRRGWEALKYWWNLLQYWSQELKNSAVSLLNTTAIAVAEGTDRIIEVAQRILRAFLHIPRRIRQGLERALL

Row | SMILES | IC50 (HIV-1, NL4-3 strain) [µM] | IC50 [1] [µM]
1 | COc1ccc(-c2nc3c(C(=O)N4CCN(C(CO)c5cccc(CNC(C)=O)c5)C[C@H]4C)cnn3c(C(F)(F)F)c2C)cc1 (stereo partly drawn) [acetamide, N-[[3-[2-hydroxy-1-[(3R)-4-[[5-(4-methoxyphenyl)-6-methyl-7-(trifluoromethyl)pyrazolo[1,5-α]pyrimidin-3-yl]carbonyl]-3-methyl-1-piperazinyl]ethyl]phenyl]methyl]-] | > 10.1 | > 10.1
2 | COc1ccc(-c2nc3c(C(=O)N4CCN([C@H](CO)c5c(C)noc5C)C[C@H]4C)cnn3c(C(F)(F)F)c2C)cc1 [methanone, [(2R)-4-[(1S)-1-(3,5-dimethyl-4-isoxazolyl)-2-hydroxyethyl]-2-methyl-1-piperazinyl][5-(4-methoxyphenyl)-6-methyl-7-(trifluoromethyl)pyrazolo[1,5-α]pyrimidin-3-yl]-] | 1.1 to 10 | 1.1 to 10
3 | COc1ccc(-c2nc3c(C(=O)N4CCN(C(CO)c5cccc(NC(C)=O)c5)C[C@H]4C)cnn3c(C(F)(F)F)c2C)cc1 (stereo partly drawn) [acetamide, N-[3-[2-hydroxy-1-[(3R)-4-[[5-(4-methoxyphenyl)-6-methyl-7-(trifluoromethyl)pyrazolo[1,5-α]pyrimidin-3-yl]carbonyl]-3-methyl-1-piperazinyl]ethyl]phenyl]-] | < 1 | < 1
4 | COc1ccc(-c2nc3c(C(=O)N4CCN([C@@H](CO)c5ccccc5F)C[C@H]4C)cnn3c(C(F)(F)F)c2C)cc1 [methanone, [(2R)-4-[(1R)-1-(2-fluorophenyl)-2-hydroxyethyl]-2-methyl-1-piperazinyl][5-(4-methoxyphenyl)-6-methyl-7-(trifluoromethyl)pyrazolo[1,5-α]pyrimidin-3-yl]-] | < 1 | < 1
5 | COc1ccc(-c2nc3c(C(=O)N4CCN(C(CO)c5cccnc5Cl)C[C@H]4C)cnn3c(C(F)(F)F)c2C)cc1 (stereo partly drawn) [methanone, [(2R)-4-[1-(2-chloro-3-pyridinyl)-2-hydroxyethyl]-2-methyl-1-piperazinyl][5-(4-methoxyphenyl)-6-methyl-7-(trifluoromethyl)pyrazolo[1,5-α]pyrimidin-3-yl]-] | < 1 | < 1
6 | COc1ccc(-c2nc3c(C(=O)N4CCN(C(CO)c5ccc(Br)nc5)C[C@H]4C)cnn3c(C(F)(F)F)c2C)cc1 (stereo partly drawn) [methanone, [(2R)-4-[1-(6-bromo-3-pyridinyl)-2-hydroxyethyl]-2-methyl-1-piperazinyl][5-(4-methoxyphenyl)-6-methyl-7-(trifluoromethyl)pyrazolo[1,5-α]pyrimidin-3-yl]-] | < 1 | < 1
7 | COc1ccc(-c2nc3c(C(=O)N4CCN(C(CO)c5ccccc5C#N)C[C@H]4C)cnn3c(C(F)(F)F)c2C)cc1 (stereo partly drawn) [benzonitrile, 2-[2-hydroxy-1-[(3R)-4-[[5-(4-methoxyphenyl)-6-methyl-7-(trifluoromethyl)pyrazolo[1,5-α]pyrimidin-3-yl]carbonyl]-3-methyl-1-piperazinyl]ethyl]-] | < 1 | < 1
8 | COc1ccc(-c2nc3c(C(=O)N4CCN([C@@H](CO)c5cccc(OC)c5)C[C@H]4C)cnn3c(C(F)(F)F)c2C)cc1 [methanone, [(2R)-4-[(1R)-2-hydroxy-1-(3-methoxyphenyl)ethyl]-2-methyl-1-piperazinyl][5-(4-methoxyphenyl)-6-methyl-7-(trifluoromethyl)pyrazolo[1,5-α]pyrimidin-3-yl]-] | < 1 | < 1
9 | COc1ccc(-c2nc3c(C(=O)N4CCN([C@@H](C)c5cc(F)cc(F)c5)C[C@H]4C)cnn3c(C(F)(F)F)c2C)cc1 [methanone, [(2R)-4-[(1S)-1-(3,5-difluorophenyl)ethyl]-2-methyl-1-piperazinyl][5-(4-methoxyphenyl)-6-methyl-7-(trifluoromethyl)pyrazolo[1,5-α]pyrimidin-3-yl]-] | < 1 | < 1
10 | Cc1c(-c2ccc(C3CC3)cc2)nc2c(C(=O)N3CCN([C@@H](CO)c4ccccc4)C[C@H]3C)cnn2c1C(F)(F)F [methanone, [5-(4-cyclopropylphenyl)-6-methyl-7-(trifluoromethyl)pyrazolo[1,5-α]pyrimidin-3-yl][(2R)-4-[(1R)-2-hydroxy-1-phenylethyl]-2-methyl-1-piperazinyl]-] | < 1 | < 1
11 | COc1ccc(-c2nc3c(C(=O)N4CCN(C(CO)c5ccco5)C[C@H]4C)cnn3c(C(F)(F)F)c2C)cc1 (stereo partly drawn) [methanone, [(2R)-4-[1-(2-furanyl)-2-hydroxyethyl]-2-methyl-1-piperazinyl][5-(4-methoxyphenyl)-6-methyl-7-(trifluoromethyl)pyrazolo[1,5-α]pyrimidin-3-yl]-] | < 1 | < 1
12 | COc1ccc(-c2nc3c(C(=O)N4CCN(C(CO)c5ccccc5OC(F)(F)F)C[C@H]4C)cnn3c(C(F)(F)F)c2C)cc1 (stereo partly drawn) [methanone, [(2R)-4-[2-hydroxy-1-[2-(trifluoromethoxy)phenyl]ethyl]-2-methyl-1-piperazinyl][5-(4-methoxyphenyl)-6-methyl-7-(trifluoromethyl)pyrazolo[1,5-α]pyrimidin-3-yl]-] | 1.1 to 10 | 1.1 to 10
13 | COc1ccc(-c2nc3c(C(=O)N4CCN(C(CO)c5cccc(N)c5)C[C@H]4C)cnn3c(C(F)(F)F)c2C)cc1 (stereo partly drawn) [methanone, [(2R)-4-[1-(3-aminophenyl)-2-hydroxyethyl]-2-methyl-1-piperazinyl][5-(4-methoxyphenyl)-6-methyl-7-(trifluoromethyl)pyrazolo[1,5-α]pyrimidin-3-yl]-] | < 1 | < 1
14 | COc1ccc(-c2nc3c(C(=O)N4CCN([C@@H](CO)c5ccccc5OC)C[C@H]4C)cnn3c(C(F)(F)F)c2C)cc1 [methanone, [(2R)-4-[(1R)-2-hydroxy-1-(2-methoxyphenyl)ethyl]-2-methyl-1-piperazinyl][5-(4-methoxyphenyl)-6-methyl-7-(trifluoromethyl)pyrazolo[1,5-α]pyrimidin-3-yl]-] | < 1 | < 1
15 | COc1ccc(-c2nc3c(C(=O)N4CCN([C@H](CO)c5cccc(OC)c5)C[C@H]4C)cnn3c(C(F)(F)F)c2C)cc1 [methanone, [(2R)-4-[(1S)-2-hydroxy-1-(3-methoxyphenyl)ethyl]-2-methyl-1-piperazinyl][5-(4-methoxyphenyl)-6-methyl-7-(trifluoromethyl)pyrazolo[1,5-α]pyrimidin-3-yl]-] | < 1 | < 1
16 | COc1ccc(-c2nc3c(C(=O)N4CCN(C(CO)c5cccc(OC(F)(F)F)c5)C[C@H]4C)cnn3c(C(F)(F)F)c2C)cc1 (stereo partly drawn) [methanone, [(2R)-4-[2-hydroxy-1-[3-(trifluoromethoxy)phenyl]ethyl]-2-methyl-1-piperazinyl][5-(4-methoxyphenyl)-6-methyl-7-(trifluoromethyl)pyrazolo[1,5-α]pyrimidin-3-yl]-] | < 1 | < 1
17 | COc1ccc(-c2nc3c(C(=O)N4CCN(C(CO)c5ccsc5)C[C@H]4C)cnn3c(C(F)(F)F)c2C)cc1 (stereo partly drawn) [methanone, [(2R)-4-[2-hydroxy-1-(3-thienyl)ethyl]-2-methyl-1-piperazinyl][5-(4-methoxyphenyl)-6-methyl-7-(trifluoromethyl)pyrazolo[1,5-α]pyrimidin-3-yl]-] | < 1 | < 1
